Assay results from US9657057B2, “Dipeptide and tripeptide epoxy ketone protease inhibitors” (Onyx Therapeutics, Inc., priority 2013, dated 2017).
pIC50: −log10 of the molar value. In brackets after ≈: the same amount, converted by molar mass. Read-outs that look alike come from different tables or passages of the source.

Experiments:
[1] = Solubility pH 7; assay type: physicochemical; conditions: pH 7, aqueous buffer
[2] = target: c20S (constitutive 20S proteasome) (Homo sapiens, UniProt P20618+P28074); assay: 20S proteasome assay, chymotrypsin-like activity (LLVY), c20S; assay type: biochemical; conditions: LLVY c20S Hu 1 h CONT: IC50 (nM), succinyl-Leu-Leu-Val-Tyr-AMC
Source text: (§1) Assay buffer consisted of TE buffer [20 mmol/L Tris (pH 8.0), 0.5 mmol/L EDTA] with (20S) or without (cell lysate) 0.03% SDS. Reactions were initiated by enzyme or lysate addition and monitored for AMC product formation at 27jC with a plate-based spectofluorometer (Tecan).

[3] = target: T1, β5 (Homo sapiens, UniProt P20618+P28074); assay: ProCISE proteasome subunit assay, β5; assay type: biochemical; conditions: MOLT4 lysate Hu 1 h
T1 construct: endogenous in cells; host or cells: MOLT-4
Outline: (§2)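 MOLT-4 cell lysate was incubated with compound for 1 h at 25° C, then a subunit-binding probe was applied; probe-bound subunits were pulled down on streptavidin beads after guanidine denaturation and detected with subunit-specific antibodies by HRP chemiluminescence. Signal was normalized to protein and expressed as percent of DMSO control to fit IC50.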

[4] = target: T2, LMP2 (Homo sapiens, UniProt P28065+P40306); assay: ProCISE proteasome subunit assay, LMP2; assay type: biochemical; conditions: for IC50: ProCISE LMP2 MOLT4 lysate Hu 1 h CONT: IC50 (nM)
T2 construct: endogenous in cells; host or cells: MOLT-4
Method: (§3) This assay was used to assess the inhibitory activity against each of LMP2, LMP7, MECL1, β1, β2, and β5. Briefly, test compounds were serially diluted in DMSO at 100× concentration, then diluted to 10× in aqueous hypotonic lysis buffer. Lysate from the human acute lymphoblastic leukemia cell line, MOLT-4, was treated for 1 hour at 25° C. with compound at a final 1× concentration. […] Following this, lysate was denatured in guanidine hydrochloride, and subunits bound to probe were isolated with streptavidin-conjugated sepharose beads. Individual subunits were probed with subunit-specific primary antibodies, followed by HRP-conjugated secondary antibodies. A chemiluminescent substrate was used to generate signal associated with HRP binding, which was detected on a plate reader. Luminescent signal was normalized to protein content, then, percent activity calculated relative to DMSO-treated controls to generate IC50 curves.

[5] = target: i20S (20S immunoproteasome) (Homo sapiens, UniProt P20618+P28062); assay: 20S proteasome assay, chymotrypsin-like activity (LLVY), i20S; assay type: biochemical; conditions: LLVY i20S Hu 1 h CONT: IC50 (nM), succinyl-Leu-Leu-Val-Tyr-AMC
Source text: as §1

[6] = target: T3, LMP7 (Homo sapiens, UniProt P20618+P28062); assay: ProCISE proteasome subunit assay, LMP7; assay type: biochemical; conditions: MOLT4 lysate Hu 1 h
T3 construct: endogenous in cells; host or cells: MOLT-4
Outline: as §2

[7] = target: β1 (Homo sapiens, UniProt P28072+Q99436); assay: ProCISE proteasome subunit assay, β1; assay type: biochemical; conditions: MOLT-4 lysate, 1 hour at 25° C.
Method: as §3

[8] = target: MECL1 (Homo sapiens, UniProt P40306+P49720); assay: ProCISE proteasome subunit assay, MECL1; assay type: biochemical; conditions: MOLT-4 lysate, 1 hour at 25° C.
Method: as §3

[9] = target: β2 (Homo sapiens, UniProt P49720+Q99436); assay: ProCISE proteasome subunit assay, β2; assay type: biochemical; conditions: MOLT-4 lysate, 1 hour at 25° C.
Method: as §3

| solubility [1] [µg/mL] | IC50 [2] [nM] | pIC50 [3] | pIC50 ([4]; MOLT4 lysate Hu 1 h) | IC50 [5] [nM] | pIC50 [6] | Compound | also measured |
| --- | --- | --- | --- | --- | --- | --- | --- |
| 55.5 (≈ 103 µM) | 64400 | < 3.60 | 6.33 | 19500 | 4.71 | COc1ccc(C[C@H](NC(=O)[C@@H](C)NC(=O)c2ncc[nH]2)C(=O)N[C@@H](CC2CCCC2)C(=O)[C@@]2(C)CO2)cc1 [Compound C-2034, N—((R)-1-(((S)-1-(((S)-3-cyclopentyl-1-((R)-2-methyloxiran-2-yl)-1-oxopropan-2-yl)amino)-3-(4-methoxyphenyl)-1-oxopropan-2-yl)amino)-1-oxopropan-2-yl)-1H-imidazole-2-carboxamide] |  |
|  | 87800 | 5.08 | 6.29 | 9890 | 5.34 | COc1ccc(C[C@H](NC(=O)[C@H]2CCCC(=O)N2)C(=O)N[C@@H](Cc2ccccc2)C(=O)[C@@]2(C)CO2)cc1 [Compound C-3009, (R)—N—((S)-3-(4-Methoxyphenyl)-1-(((S)-1-((R)-2-methyloxiran-2-yl)-1-oxo-3-phenylpropan-2-yl)amino)-1-oxopropan-2-yl)-6-oxopiperidine-2-carboxamide] |  |
| 69.4 (≈ 140 µM) |  |  | 7.46 |  |  | COc1ccc(C[C@H](NC(=O)c2cccc(=O)[nH]2)C(=O)N[C@@H](CC2CCCC2)C(=O)[C@@]2(C)CO2)cc1 [Compound C-3014, N—((S)-1-(((S)-3-Cyclopentyl-1-((R)-2-methyloxiran-2-yl)-1-oxopropan-2-yl)amino)-3-(4-methoxyphenyl)-1-oxopropan-2-yl)-6-oxo-1,6-dihydropyridine-2-carboxamide] |  |
| 516 (≈ 1320 µM) |  |  | 7.60 |  |  | C[C@H](NC(=O)c1cccc(=O)[nH]1)C(=O)N[C@@H](CC1CCCC1)C(=O)[C@@]1(C)CO1 [Compound C-3018, N—((S)-1-(((S)-3-Cyclopentyl-1-((R)-2-methyloxiran-2-yl)-1-oxopropan-2-yl)amino)-1-oxopropan-2-yl)-6-oxo-1,6-dihydropyridine-2-carboxamide] |  |
| 639 (≈ 1580 µM) |  |  | 7.77 |  |  | C[C@]1(C(=O)[C@H](CC2CCCC2)NC(=O)[C@H](CO)NC(=O)c2cccc(=O)[nH]2)CO1 [Compound C-3019, N—((S)-1-(((S)-3-Cyclopentyl-1-((R)-2-methyloxiran-2-yl)-1-oxopropan-2-yl)amino)-3-hydroxy-1-oxopropan-2-yl)-6-oxo-1,6-dihydropyridine-2-carboxamide] |  |

Continued, compound first:

| Compound | solubility [1] [µg/mL] | IC50 [2] [nM] | pIC50 [3] | pIC50 ([4]; MOLT4 lysate Hu 1 h) | IC50 [5] [nM] | pIC50 [6] | also measured |
| --- | --- | --- | --- | --- | --- | --- | --- |
| COc1ccc(C[C@H](NC(=O)[C@@H](C)NC(=O)CC(C)(C)O)C(=O)N[C@@H](CC2=CCCC2)C(=O)[C@@]2(C)CO2)cc1O [Compound C-2060, N—((R)-1-(((S)-1-(((S)-3-(cyclopent-1-en-1-yl)-1-((R)-2-methyloxiran-2-yl)-1-oxopropan-2-yl)amino)-3-(3-hydroxy-4-methoxyphenyl)-1-oxopropan-2-yl)amino)-1-oxopropan-2-yl)-3-hydroxy-3-methylbutanamide] | 3010 (≈ 5390 µM) | 201 | 6.43 |  | 17.3 | 7.22 |  |
| COc1ccc(C[C@H](NC(=O)c2ccnc(N3CCOCC3)n2)C(=O)N[C@@H](Cc2ccccc2)C(=O)[C@@]2(C)CO2)cc1 [Compound C-3001] |  |  | 5.25 | 6.28 |  | 5.32 |  |
| COc1ccc(C[C@H](NC(=O)[C@@](C)(O)C(F)(F)F)C(=O)N[C@@H](Cc2ccccc2)C(=O)[C@@]2(C)CO2)cc1 [Compound C-3007, (R)-3,3,3-Trifluoro-2-hydroxy-N—((S)-3-(4-methoxyphenyl)-1-(((S)-1-((R)-2-methyloxiran-2-yl)-1-oxo-3-phenylpropan-2-yl)amino)-1-oxopropan-2-yl)-2-methylpropanamide] | 86.7 (≈ 166 µM) |  | 5.01 | 6.56 |  | 5.46 |  |
| COc1ccc(C[C@H](NC(=O)c2cccc(=O)[nH]2)C(=O)N[C@@H](Cc2ccccc2)C(=O)[C@@]2(C)CO2)cc1 [Compound C-3008, N—((S)-3-(4-Methoxyphenyl)-1-(((S)-1-((R)-2-methyloxiran-2-yl)-1-oxo-3-phenylpropan-2-yl)amino)-1-oxopropan-2-yl)-6-oxo-1,6-dihydropyridine-2-carboxamide] |  |  |  |  |  |  | pIC50 [7]: 4.00; IC50 ([4]; MOLT4 lysate Hu 1 h): 109 nM; pIC50 ([4]; ProCISE, MOLT-4 lysate, 1 hour at 25° C., read-out: LMP2): 6.96; pIC50 [8]: < 3.60; pIC50 [9]: < 3.60 |
| COc1ccc(C[C@H](NC(=O)[C@@]2(C)CCC(=O)N2)C(=O)N[C@@H](Cc2ccccc2)C(=O)[C@@]2(C)CO2)cc1 [Compound C-3010, (R)—N—((S)-3-(4-methoxyphenyl)-1-(((S)-1-((R)-2-methyloxiran-2-yl)-1-oxo-3-phenylpropan-2-yl)amino)-1-oxopropan-2-yl)-2-methyl-5-oxopyrrolidine-2-carboxamide] | 1380 (≈ 2720 µM) | 4080 | 5.37 |  | 1610 | 5.93 |  |
| COc1ccc(C[C@H](NC(=O)[C@H]2CCC(=O)N2)C(=O)N[C@@H](Cc2ccccc2)C(=O)[C@@]2(C)CO2)cc1 [Compound C-3012, (R)—N—((S)-3-(4-methoxyphenyl)-1-(((S)-1-((R)-2-methyloxiran-2-yl)-1-oxo-3-phenylpropan-2-yl)amino)-1-oxopropan-2-yl)-5-oxopyrrolidine-2-carboxamide] | 4410 (≈ 8930 µM) | 14500 | 5.22 |  | 4790 | 5.56 |  |
| COc1ccc(C[C@H](NC(=O)[C@@H]2CCC(=O)N2)C(=O)N[C@@H](Cc2ccccc2)C(=O)[C@@]2(C)CO2)cc1 [Compound C-3013, (S)—N—((S)-3-(4-methoxyphenyl)-1-(((S)-1-((R)-2-methyloxiran-2-yl)-1-oxo-3-phenylpropan-2-yl)amino)-1-oxopropan-2-yl)-5-oxopyrrolidine-2-carboxamide] | 1910 (≈ 3870 µM) | 15900 | 4.85 |  | 4050 | 5.46 |  |
| COc1ccc(C[C@H](NC(=O)c2cccc(=O)[nH]2)C(=O)N[C@@H](CC2=CCCC2)C(=O)[C@@]2(C)CO2)cc1 [Compound C-3015, N—((S)-1-(((S)-3-(Cyclopent-1-en-1-yl)-1-((R)-2-methyloxiran-2-yl)-1-oxopropan-2-yl)amino)-3-(4-methoxyphenyl)-1-oxopropan-2-yl)-6-oxo-1,6-dihydropyridine-2-carboxamide] | 143 (≈ 291 µM) |  |  | 7.42 |  |  |  |
| C[C@H](NC(=O)c1cccc(=O)[nH]1)C(=O)N[C@@H](Cc1ccccc1)C(=O)[C@@]1(C)CO1 [Compound C-3016, N—((S)-1-(((S)-1-((R)-2-Methyloxiran-2-yl)-1-oxo-3-phenylpropan-2-yl)amino)-1-oxopropan-2-yl)-6-oxo-1,6-dihydropyridine-2-carboxamide] | 7520 (≈ 18900 µM) |  |  | 7.26 |  |  |  |
| C[C@]1(C(=O)[C@H](Cc2ccccc2)NC(=O)[C@H](CO)NC(=O)c2cccc(=O)[nH]2)CO1 [Compound C-3017, N—((S)-3-Hydroxy-1-(((S)-1-((R)-2-methyloxiran-2-yl)-1-oxo-3-phenylpropan-2-yl)amino)-1-oxopropan-2-yl)-6-oxo-1,6-dihydropyridine-2-carboxamide] | 6640 (≈ 16100 µM) |  |  |  |  |  | IC50 ([4]; MOLT4 lysate Hu 1 h): 33 nM |
